The values below come from ChEMBL document CHEMBL2331254, “Pyrrolopyrimidine inhibitors of DNA gyrase B (GyrB) and topoisomerase IV (ParE), Part II: development of inhibitors with broad spectrum, Gram-negative antibacterial activity” (Bioorg Med Chem Lett, 2013).

Assay [1] concerns Escherichia coli. Briefly: Antibacterial activity against permeabilized Escherichia coli IBAS849 by broth microdilution method. The format is functional.
Assay [2] deals with Escherichia coli. Briefly: Antibacterial activity against wild type Escherichia coli ATCC 25922 by broth microdilution method. The format is functional. In general terms: In broth dilution the organism is exposed to a series of concentrations in liquid medium.
Assay [3] is described as follows: Inhibition of Francisella tularensis parE assessed as release of inorganic phosphate from ATP hydrolysis after 30 mins by coupled spectrophotometric assay.
Assay [4] relates to Escherichia coli. Briefly: Antibacterial activity against Escherichia coli BW25113 harboring deltatolC by broth microdilution method. It counts as functional.
Assay [5] is described as follows: Inhibition of Francisella tularensis GyrB assessed as release of inorganic phosphate from ATP hydrolysis after 30 mins by coupled spectrophotometric assay.
For another assay, the system named is Staphylococcus aureus. Briefly: Antibacterial activity against Staphylococcus aureus ATCC 13709 by broth microdilution method. It counts as functional.
Assay [6] can be described thus: Inhibition of Escherichia coli GyrB assessed as release of inorganic phosphate from ATP hydrolysis after 30 mins by coupled spectrophotometric assay.
Assay [7] is described as follows: Inhibition of Escherichia coli parE assessed as release of inorganic phosphate from ATP hydrolysis after 30 mins by coupled spectrophotometric assay.

Each structure is given as a SMILES string. In brackets after ≈: the same amount, converted by molar mass.

`CCc1[nH]c2nc(Sc3cnc4nccnc4c3)nc(N3CC(N)C3)c2c1Cl`: the MIC is 8 µg/mL (≈ 19.4 µM) with Escherichia coli [1], 64 µg/mL (≈ 155 µM) with Escherichia coli [2], 4 µg/mL (≈ 9.69 µM) with Escherichia coli [4] and 1 µg/mL (≈ 2.42 µM) with Staphylococcus aureus. The Ki in assay [3] turned out to be 5 nM; in assay [5], 7 nM.
For the compound `CCc1[nH]c2nc(Sc3ccc4c(c3)C(=O)NC4)nc(N3C[C@@H]4[C@@H](N)[C@@H]4C3)c2c1Cl`, the MIC was determined as 4 µg/mL (≈ 9.07 µM) against Escherichia coli [1], 32 µg/mL (≈ 72.6 µM) in the assay on Escherichia coli [2], 1 µg/mL (≈ 2.27 µM) with Escherichia coli [4] and 0.5 µg/mL (≈ 1.13 µM) against Staphylococcus aureus. The results for the Ki in assay [6] and in assay [7] were 4 nM and 8 nM, respectively.
For `CCc1[nH]c2nc(Sc3cncc(S(=O)(=O)N(C)C)c3)nc(N3C[C@@H]4[C@@H](N)[C@@H]4C3)c2c1Cl`, the MIC is 32 µg/mL (≈ 64.8 µM) in the assay with Escherichia coli [1], more than 64 µg/mL with Escherichia coli [2], 4 µg/mL (≈ 8.1 µM) with Escherichia coli [4] and 2 µg/mL (≈ 4.05 µM) with Staphylococcus aureus. Besides, the Ki in assay [6] amounted to 2 nM; in assay [7], 19 nM.
`CCc1[nH]c2nc(Sc3ccc4ccc(C(=O)O)nc4c3)nc(N3CCC(N)C3)c2c1Cl` (stereo unspecified): the MIC with Escherichia coli [1] was more than 64 µg/mL; against Escherichia coli [2] it was more than 64 µg/mL; in the assay on Escherichia coli [4], 8 µg/mL (≈ 17.1 µM); in the assay with Staphylococcus aureus it was 2 µg/mL (≈ 4.26 µM). In addition, the Ki was less than 0.5 nM in assay [6] and 2 nM in assay [7].
For `CCc1[nH]c2nc(Sc3ccc4[nH]cc(C(=O)O)c(=O)c4c3)nc(N3CCC(N)C3)c2c1Cl` (stereo unspecified), the MIC with Escherichia coli [1], with Escherichia coli [2], against Escherichia coli [4] and with Staphylococcus aureus was more than 64 µg/mL each time. The Ki was less than 0.5 nM in assay [6] and 1 nM in assay [7].
Take `CCc1[nH]c2nc(Sc3ccc4c(N5CCC(N)C5)nc(C(=O)O)nc4c3)nc(N3CCC(N)C3)c2c1Cl` (stereo unspecified): the MIC is 4 µg/mL (≈ 7.22 µM) in the assay with Escherichia coli [1], 8 µg/mL (≈ 14.4 µM) in the assay with Escherichia coli [2], 8 µg/mL (≈ 14.4 µM) against Escherichia coli [4] and 8 µg/mL (≈ 14.4 µM) in the assay with Staphylococcus aureus. For the same compound, the inhibitory constant (Ki) in assay [6] is less than 0.5 nM; in assay [7] it was 1 nM.
`CCc1[nH]c2nc(Sc3ccc4c(N)nc(C)nc4c3)nc(N3CCC(N)C3)c2c1Cl` (stereo unspecified): the MIC against Escherichia coli [1] was 8 µg/mL (≈ 17.6 µM); against Escherichia coli [2] it was 16 µg/mL (≈ 35.2 µM); against Escherichia coli [4], 2 µg/mL (≈ 4.4 µM); against Staphylococcus aureus it was 2 µg/mL (≈ 4.4 µM). The Ki in assay [6] is less than 0.5 nM; in assay [7], 2 nM.
For the compound `CCc1[nH]c2nc(Sc3ccc4c(N5CC(N)C5)ncnc4c3)nc(N3CCC(N)C3)c2c1Cl` (stereo unspecified), the MIC with Escherichia coli [1] was 8 µg/mL (≈ 16.1 µM); against Escherichia coli [2], 8 µg/mL (≈ 16.1 µM); with Escherichia coli [4] it was 4 µg/mL (≈ 8.06 µM); in the assay on Staphylococcus aureus it was 16 µg/mL (≈ 32.3 µM). The Ki in assay [6] was less than 0.5 nM; in assay [7], 7 nM.
Turning to `CCc1[nH]c2nc(Sc3ccc4cc5c([n+]([O-])c4c3)CCNC5)nc(N3CCC(N)C3)c2c1Cl` (stereo unspecified), the MIC with Escherichia coli [1] was determined as 16 µg/mL (≈ 32.3 µM); against Escherichia coli [2] it was 16 µg/mL (≈ 32.3 µM); against Escherichia coli [4] it was 4 µg/mL (≈ 8.06 µM); against Staphylococcus aureus it was 2 µg/mL (≈ 4.03 µM). Besides, the Ki in assay [6] is less than 0.5 nM; in assay [7], 6 nM.
Regarding `CCc1[nH]c2nc(Sc3cnc4nccnc4c3)nc(N3C[C@@H]4[C@@H](N)[C@@H]4C3)c2c1Cl`, the MIC against Escherichia coli [1] was 0.5 µg/mL (≈ 1.14 µM); against Escherichia coli [2], 8 µg/mL (≈ 18.2 µM); with Escherichia coli [4] it was 0.5 µg/mL (≈ 1.14 µM); in the assay with Staphylococcus aureus, 0.13 µg/mL (≈ 0.296 µM). Also, the Ki in assay [6] is less than 0.5 nM; in assay [7] it was 1 nM; in assay [5], less than 1 nM.
For `CCc1[nH]c2nc(Sc3ccc4nccnc4c3)nc(N3C[C@@H]4[C@@H](N)[C@@H]4C3)c2c1Cl`, the MIC was 0.25 µg/mL (≈ 0.571 µM) against Escherichia coli [1], more than 64 µg/mL against Escherichia coli [2], 0.25 µg/mL (≈ 0.571 µM) against Escherichia coli [4] and not above 0.13 µg/mL with Staphylococcus aureus. Besides, the Ki in assay [6] was less than 0.5 nM; in assay [7] it was 1 nM.
For `CCc1[nH]c2nc(Sc3ccc4cccnc4c3)nc(N3C[C@@H]4[C@@H](N)[C@@H]4C3)c2c1Cl`, the MIC in the assay on Escherichia coli [1] is 4 µg/mL (≈ 9.15 µM); against Escherichia coli [2], more than 64 µg/mL; in the assay on Escherichia coli [4] it was 1 µg/mL (≈ 2.29 µM); with Staphylococcus aureus, 0.25 µg/mL (≈ 0.572 µM). In addition, the values for the Ki in assay [6] and in assay [7] were 1 nM and 6 nM, respectively.
`CCc1[nH]c2nc(Sc3ccc4ccc[n+]([O-])c4c3)nc(N3C[C@@H]4[C@@H](N)[C@@H]4C3)c2c1Cl`: the MIC in the assay with Escherichia coli [1] is 1 µg/mL (≈ 2.21 µM); in the assay with Escherichia coli [2], 8 µg/mL (≈ 17.7 µM); with Escherichia coli [4] it was 0.25 µg/mL (≈ 0.552 µM); in the assay on Staphylococcus aureus, not above 0.13 µg/mL. In addition, the Ki in assay [6] was less than 0.5 nM; in assay [7], less than 1 nM.
For `CCc1[nH]c2nc(Sc3cnc4c(c3)c(=O)ncn4C)nc(N3C[C@@H]4[C@@H](N)[C@@H]4C3)c2c1Cl`, the MIC turned out to be 2 µg/mL (≈ 4.26 µM) in the assay with Escherichia coli [1], 32 µg/mL (≈ 68.2 µM) against Escherichia coli [2], 2 µg/mL (≈ 4.26 µM) with Escherichia coli [4] and 0.5 µg/mL (≈ 1.07 µM) with Staphylococcus aureus. The results for the Ki in assay [6] and in assay [7] were 5 nM and 3 nM, respectively.
For the compound `CCc1[nH]c2nc(Sc3cccnc3)nc(NC[C@H](C)O)c2c1Cl`, the MIC is 32 µg/mL (≈ 87.9 µM) against Escherichia coli [1], more than 64 µg/mL against Escherichia coli [2] and 4 µg/mL (≈ 11 µM) in the assay on Staphylococcus aureus. In addition, the Ki is 173 nM in assay [3] and 171 nM in assay [5].
In the case of `CCc1[nH]c2nc(Sc3cnc4nccnc4c3)nc(NC[C@H](C)O)c2c1Cl`, the MIC is 8 µg/mL (≈ 19.2 µM) in the assay with Escherichia coli [1], more than 64 µg/mL against Escherichia coli [2], 4 µg/mL (≈ 9.62 µM) against Escherichia coli [4] and 1 µg/mL (≈ 2.4 µM) against Staphylococcus aureus. Also, the Ki in assay [3] is 23 nM; in assay [5] it was 43 nM.
As for `CCc1[nH]c2nc(Sc3cnc4nccnc4c3)nc(N3CC(O)C3)c2c1Cl`, the MIC in the assay on Escherichia coli [1] was 4 µg/mL (≈ 9.66 µM); in the assay with Escherichia coli [2], more than 64 µg/mL; in the assay on Escherichia coli [4], 2 µg/mL (≈ 4.83 µM); against Staphylococcus aureus, 0.25 µg/mL (≈ 0.604 µM). The Ki in assay [3] worked out at 5 nM; in assay [5], 7 nM.
Take `CCc1[nH]c2nc(Sc3cnc4nccnc4c3)nc(N3CC(C)(N)C3)c2c1Cl`: the MIC against Escherichia coli [1] is 16 µg/mL (≈ 37.5 µM); against Escherichia coli [2], more than 64 µg/mL; against Escherichia coli [4] it was 16 µg/mL (≈ 37.5 µM); in the assay on Staphylococcus aureus, 4 µg/mL (≈ 9.37 µM). For the same compound, the Ki was determined as 69 nM in assay [7] and 16 nM in assay [5].
On to `CCc1[nH]c2nc(Sc3cnc4nccnc4c3)nc(N3CCC(N)C3)c2c1Cl` (stereo unspecified), for which the MIC against Escherichia coli [1] is 4 µg/mL (≈ 9.37 µM); with Escherichia coli [2] it was 32 µg/mL (≈ 75 µM); with Escherichia coli [4], 2 µg/mL (≈ 4.68 µM); in the assay with Staphylococcus aureus it was 1 µg/mL (≈ 2.34 µM). The Ki in assay [7] is 11 nM; in assay [5] it was less than 1 nM.
`CCc1[nH]c2nc(Sc3cnc4nccnc4c3)nc(N3CCC(NC)C3)c2c1Cl` (stereo unspecified): the MIC was 16 µg/mL (≈ 36.3 µM) in the assay on Escherichia coli [1], more than 64 µg/mL in the assay with Escherichia coli [2], 8 µg/mL (≈ 18.1 µM) in the assay with Escherichia coli [4] and 2 µg/mL (≈ 4.54 µM) against Staphylococcus aureus. The Ki in assay [7] came out at 40 nM; in assay [5], 2 nM.
As for `CCc1[nH]c2nc(Sc3cnc4nccnc4c3)nc(N3CCCC(N)C3)c2c1Cl` (stereo unspecified), the MIC in the assay with Escherichia coli [1] was 32 µg/mL (≈ 72.6 µM); with Escherichia coli [2], more than 64 µg/mL; against Escherichia coli [4] it was 16 µg/mL (≈ 36.3 µM); in the assay on Staphylococcus aureus, 8 µg/mL (≈ 18.1 µM). The Ki stood at 131 nM in assay [7] and 7 nM in assay [5].

The MIC is the least concentration at which growth counts as inhibited. Low values mean inhibition by little substance, high ones a need for much substance. What is called Ki is the equilibrium dissociation constant of an inhibitor or competing ligand from its target.
